What is called MIC is the least concentration at which growth counts as inhibited.

Holding throughout (type): cell-based
Experiment [1] deals with S. aureus ATCC 6538. The experiment in a line: MIC by broth microdilution, S. aureus. As to conditions: Staphylococcus aureus. The procedure, abridged:
(§1)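 Overnight cultures diluted to ~5×10^5 cfu/mL final; S. aureus in TSB and CAMHB, E. coli in LB and CAMHB, zinc sulphate to 50 μM final as required; two-fold serial dilutions. MIC = lowest concentration with no growth by OD600 after 24 h, 37° C, 200 rpm. MBC by Miles-Misra drop-plate viability count.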
Background: Dilution methods test growth across graded concentrations, often in twofold steps.

The test system of experiment [2] is S. uberis ATCC 19436. As to the kind of experiment: MIC by broth microdilution, S. uberis. As to conditions: Streptococcus uberis. The procedure, abridged:
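This broth microdilution assay used S. uberis ATCC 19436 in Todd Hewitt Broth, with zinc sulphate heptahydrate added where required to a final 50 μM. Inhibitor concentration ranges came from two-fold serial dilutions in 96-well flat bottom plates at 200 μl. Approximately 5×10^5 cfu/mL cells were incubated for 24 h at 37° C. and 200 rpm. Wells were then read at OD600 on a Varioskan Flash reader.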

Experiment [3] deals with E. coli ATCC 10596. As to the kind of experiment: MIC by broth microdilution, E. coli. As to conditions: Escherichia coli. The gist of the method:
as §1

Where [4] appears, read: ATCC6538, No Zinc, read-out: S. aureus ATCC 6538 MIC.
[5] abbreviates: ATCC6538, Zinc (50 μM), read-out: S. aureus ATCC 6538 MIC.
Setting [6] is: ATCC19436, No Zinc, read-out: S. uberis ATCC 19436 MIC.
Where [7] appears, read: ATCC19436, Zinc (50 μM), read-out: S. uberis ATCC 19436 MIC.
[8] abbreviates: ATCC 10536 / ATCC 10596, No Zinc, read-out: E. coli ATCC 10536 MIC.
Setting [9] is: ATCC 10536 / ATCC 10596, Zinc (50 μM), read-out: E. coli ATCC 10536 MIC.

Molecules are shown by their SMILES. In brackets after ≈: the same amount, converted by molar mass. Structures can show the parent of a compound that is named as a salt. Where two headings read alike, the source gives them in different places. Some results are limits rather than exact numbers.

As for `CN(C)Cc1ccc2cccc(NS(=O)(=O)c3ccc(S(C)(=O)=O)cc3)c2n1` [ZDR071, N-(2-((Dimethylamino)methyl)quinolin-8-yl)-4-(methylsulfonyl)benzenesulfonamide], the MIC in experiment [1] (setting [4]) is over 256 µg/mL; in experiment [1] (setting [5]), over 256 µg/mL; in experiment [2] (setting [6]) it was over 256 µg/mL; in experiment [2] (setting [7]), 4 µg/mL (≈ 9.53 µM); in experiment [3] (setting [8]), over 256 µg/mL; in experiment [3] (setting [9]), over 256 µg/mL.
In the case of `CN/N=C/c1ccc2cccc(NS(=O)(=O)c3ccc(C(F)(F)F)cc3)c2n1` [ZDR153, (E)-N-(2-((2-Methylhydrazineylidene)methyl)quinolin-8-yl)-4-(trifluoromethyl)benzenesulfonamide], the MIC in experiment [1] (setting [4]) was 64 µg/mL (≈ 157 µM); in experiment [1] (setting [5]), 64 µg/mL (≈ 157 µM); in experiment [2] (setting [6]), over 256 µg/mL; in experiment [2] (setting [7]), 0.5 µg/mL (≈ 1.22 µM); in experiment [3] (setting [8]), over 256 µg/mL; in experiment [3] (setting [9]), over 256 µg/mL.
Turning to `CC(C)S(=O)(=O)Nc1cccc2ccc(CN(C)C)nc12` [ZDR318, N-(2-((Dimethylamino)methyl)quinolin-8-yl)propane-2-sulfonamide], the MIC in experiment [1] (setting [4]) was over 256 µg/mL; in experiment [1] (setting [5]) it was over 256 µg/mL; in experiment [2] (setting [6]), 256 µg/mL (≈ 833 µM); in experiment [2] (setting [7]), 32 µg/mL (≈ 104 µM); in experiment [3] (setting [8]), over 256 µg/mL; in experiment [3] (setting [9]), over 256 µg/mL.
On to `O=S(=O)(Nc1cccc2ccc(CNCC3CC3)nc12)c1ccc(C(F)(F)F)cc1` [ZDR087, N-(2-(((Cyclopropylmethyl)amino)methyl)quinolin-8-yl)-4-(trifluoromethyl)benzenesulfonamide], for which the MIC is 128 µg/mL (≈ 294 µM) in experiment [1] (setting [4]); over 256 µg/mL in experiment [1] (setting [5]); 256 µg/mL (≈ 588 µM) in experiment [2] (setting [6]); 0.25 µg/mL (≈ 0.574 µM) in experiment [2] (setting [7]); 256 µg/mL (≈ 588 µM) in experiment [3] (setting [8]); over 256 µg/mL in experiment [3] (setting [9]).
As to `CN(C)CCCC(=O)NCc1ccc2cccc(NS(=O)(=O)c3ccc(C(F)(F)F)cc3)c2n1` [ZDR211, 4-(Dimethylamino)-N-((8-((4-(trifluoromethyl)phenyl)sulfonamido)quinolin-2-yl)methyl)butanamide trifluoroacetate], the MIC in experiment [1] (ATCC6538, read-out: S. aureus ATCC 6538 MIC, No Zinc) was 128 µg/mL; in experiment [1] (ATCC6538, read-out: S. aureus ATCC 6538 MIC, Zinc (50 μM)), 64 µg/mL; in experiment [2] (ATCC19436, read-out: S. uberis ATCC 19436 MIC, No Zinc) it was 64 µg/mL; in experiment [2] (ATCC19436, read-out: S. uberis ATCC 19436 MIC, Zinc (50 μM)), 16 µg/mL; in experiment [3] (ATCC 10536 / ATCC 10596, read-out: E. coli ATCC 10536 MIC, No Zinc), 128 µg/mL; in experiment [3] (ATCC 10536 / ATCC 10596, read-out: E. coli ATCC 10536 MIC, Zinc (50 μM)) it was 128 µg/mL.
As to `CC(C)(C)NCc1ccc2cccc(NS(=O)(=O)c3ccc(C(F)(F)F)cc3)c2n1` [ZDR135, N-(2-((tert-Butylamino)methyl)quinolin-8-yl)-4-(trifluoromethyl)benzenesulfonamide], the MIC in experiment [1] (setting [4]) was 32 µg/mL (≈ 73.1 µM); in experiment [1] (setting [5]) it was 64 µg/mL (≈ 146 µM); in experiment [2] (setting [6]), 128 µg/mL (≈ 293 µM); in experiment [2] (setting [7]), 0.25 µg/mL (≈ 0.571 µM); in experiment [3] (setting [8]), over 256 µg/mL; in experiment [3] (setting [9]) it was over 256 µg/mL.
As for `O=S(=O)(Nc1cccc2ccc(CNCCN3CCSCC3)nc12)c1ccc(C(F)(F)F)cc1` [ZDR113, N-(2-(((2-Thiomorpholinoethyl)amino)methyl)quinolin-8-yl)-4-(trifluoromethyl)benzenesulfonamide], the MIC in experiment [1] (setting [4]) was over 256 µg/mL; in experiment [1] (setting [5]) it was over 256 µg/mL; in experiment [2] (setting [6]), 128 µg/mL (≈ 251 µM); in experiment [2] (setting [7]), 1 µg/mL (≈ 1.96 µM); in experiment [3] (setting [8]), over 256 µg/mL; in experiment [3] (setting [9]), over 256 µg/mL.
With `CN(C)Cc1ccc2cccc(NS(C)(=O)=O)c2n1` [ZDR078, N-(2-((Dimethylamino)methyl)quinolin-8-yl)methanesulfonamide], the MIC in experiment [1] (setting [4]) was over 256 µg/mL; in experiment [1] (setting [5]), over 256 µg/mL; in experiment [2] (setting [6]), over 256 µg/mL; in experiment [2] (setting [7]) it was 2 µg/mL (≈ 7.16 µM); in experiment [3] (setting [8]), over 256 µg/mL; in experiment [3] (setting [9]) it was over 256 µg/mL.
`O=S(=O)(Nc1cccc2ccc(CNCc3ccccc3)nc12)c1ccc(C(F)(F)F)cc1` [ZDR103]: the minimal inhibitory concentration (MIC) in experiment [1] (setting [4]) is 128 µg/mL (≈ 271 µM); in experiment [1] (setting [5]), over 256 µg/mL; in experiment [2] (setting [6]), over 256 µg/mL; in experiment [2] (setting [7]), 0.125 µg/mL (≈ 0.265 µM); in experiment [3] (setting [8]) it was over 256 µg/mL; in experiment [3] (setting [9]) it was over 256 µg/mL.
For the compound `CC(=O)Nc1ccc(S(=O)(=O)Nc2cccc3ccc(CN(C)C)nc23)cc1` [ZDR072, N-(4-(N-(2-((Dimethylamino)methyl)quinolin-8-yl)sulfamoyl)phenyl)acetamide], the MIC in experiment [1] (setting [4]) was over 256 µg/mL; in experiment [1] (setting [5]) it was over 256 µg/mL; in experiment [2] (setting [6]) it was 256 µg/mL (≈ 642 µM); in experiment [2] (setting [7]) it was 32 µg/mL (≈ 80.3 µM); in experiment [3] (setting [8]), over 256 µg/mL; in experiment [3] (setting [9]), over 256 µg/mL.
For `COCCOCCOCCNCc1ccc2cccc(NS(=O)(=O)c3ccc(C(F)(F)F)cc3)c2n1` [ZDR132, N-(2-(5,8,11-Trioxa-2-azadodecyl)quinolin-8-yl)-4-(trifluoromethyl)benzenesulfonamide], the MIC in experiment [1] (setting [4]) was found to be 64 µg/mL (≈ 121 µM); in experiment [1] (setting [5]), 256 µg/mL (≈ 485 µM); in experiment [2] (setting [6]), 64 µg/mL (≈ 121 µM); in experiment [2] (setting [7]) it was 1 µg/mL (≈ 1.9 µM); in experiment [3] (setting [8]) it was 256 µg/mL (≈ 485 µM); in experiment [3] (setting [9]) it was 256 µg/mL (≈ 485 µM).
Consider `CN(C)Cc1ccc2cccc(NS(=O)(=O)c3cccc(C(N)=O)c3)c2n1` [ZDR331, 3-(N-(2-((Dimethylamino)methyl)quinolin-8-yl)sulfamoyl)benzamide], for which the MIC in experiment [1] (setting [4]) is over 256 µg/mL; in experiment [1] (setting [5]) it was over 256 µg/mL; in experiment [2] (setting [6]), over 256 µg/mL; in experiment [2] (setting [7]), 16 µg/mL (≈ 41.6 µM); in experiment [3] (setting [8]), over 256 µg/mL; in experiment [3] (setting [9]), over 256 µg/mL.
For the compound `N/C(=N\[N+](=O)[O-])NCc1ccc2cccc(NS(=O)(=O)c3ccc(C(F)(F)F)cc3)c2n1` [ZDR188, (E)-N-(2-((2-Nitroguanidino)methyl)quinolin-8-yl)-4-(trifluoromethyl)benzenesulfonamide], the MIC was over 256 µg/mL in experiment [1] (setting [4]); over 256 µg/mL in experiment [1] (setting [5]); over 256 µg/mL in experiment [2] (setting [6]); 0.5 µg/mL (≈ 1.07 µM) in experiment [2] (setting [7]); over 256 µg/mL in experiment [3] (setting [8]); over 256 µg/mL in experiment [3] (setting [9]).
On to `CN(C)Cc1ccc2cccc(NS(=O)(=O)c3cccc(O)c3)c2n1` [ZDR163, N-(2-((Dimethylamino)methyl)quinolin-8-yl)-3-hydroxybenzenesulfonamide], for which the MIC was over 256 µg/mL in experiment [1] (setting [4]); over 256 µg/mL in experiment [1] (setting [5]); over 256 µg/mL in experiment [2] (setting [6]); 8 µg/mL (≈ 22.4 µM) in experiment [2] (setting [7]); over 256 µg/mL in experiment [3] (setting [8]); over 256 µg/mL in experiment [3] (setting [9]).
As to `CC(C)(C)OC(=O)N=C(NCc1ccc2cccc(NS(=O)(=O)c3ccc(C(F)(F)F)cc3)c2n1)NC(=O)OC(C)(C)C` [ZDR186, N-(2-(N,N′-Bis-Boc-Guanidinomethyl)quinolin-8-yl)-4-(trifluoromethyl)benzenesulfonamide], the MIC in experiment [1] (setting [4]) was over 256 µg/mL; in experiment [1] (setting [5]), over 256 µg/mL; in experiment [2] (setting [6]), over 256 µg/mL; in experiment [2] (setting [7]), 0.25 µg/mL (≈ 0.401 µM); in experiment [3] (setting [8]), over 256 µg/mL; in experiment [3] (setting [9]), over 256 µg/mL.
With `NC(=S)N/N=C/c1ccc2cccc(NS(=O)(=O)c3ccc(C(F)(F)F)cc3)c2n1` [ZDR046, (E)-2-((8-((4-(Trifluoromethyl)phenyl)sulfonamido)quinolin-2-yl)methylene)hydrazine-1-carbothioamide], the MIC in experiment [1] (setting [4]) is 4 µg/mL (≈ 8.82 µM); in experiment [1] (setting [5]), 4 µg/mL (≈ 8.82 µM); in experiment [2] (setting [6]) it was 4 µg/mL (≈ 8.82 µM); in experiment [2] (setting [7]), 1 µg/mL (≈ 2.21 µM); in experiment [3] (setting [8]) it was over 256 µg/mL; in experiment [3] (setting [9]), over 256 µg/mL.
As for `CN(C)CC(=O)NCc1ccc2cccc(NS(=O)(=O)c3ccc(C(F)(F)F)cc3)c2n1` [ZDR205, 2-(Dimethylamino)-N-((8-((4-(trifluoromethyl)phenyl)sulfonamido)quinolin-2-yl)methyl)acetamide], the MIC was 128 µg/mL (≈ 274 µM) in experiment [1] (setting [4]); 64 µg/mL (≈ 137 µM) in experiment [1] (setting [5]); 256 µg/mL (≈ 549 µM) in experiment [2] (setting [6]); 0.125 µg/mL (≈ 0.268 µM) in experiment [2] (setting [7]); over 256 µg/mL in experiment [3] (setting [8]); over 256 µg/mL in experiment [3] (setting [9]).
Turning to `CCC(C)NCc1ccc2cccc(NS(=O)(=O)c3ccc(C(F)(F)F)cc3)c2n1` (stereo not drawn) [ZDR402, N-(2-((sec-Butylamino)methyl)quinolin-8-yl)-4-(trifluoromethyl)benzenesulfonamide], the MIC was 32 µg/mL (≈ 73.1 µM) in experiment [1] (setting [4]); 128 µg/mL (≈ 293 µM) in experiment [1] (setting [5]); 16 µg/mL (≈ 36.6 µM) in experiment [2] (setting [6]); 0.125 µg/mL (≈ 0.286 µM) in experiment [2] (setting [7]); 256 µg/mL (≈ 585 µM) in experiment [3] (setting [8]); over 256 µg/mL in experiment [3] (setting [9]).
